{
  "source": "paper PMC6931124",
  "about": "“NPY1R-targeted peptide-mediated delivery of a dual PPARα/γ agonist to adipocytes enhances adipogenesis and prevents diabetes progression” (Molecular Metabolism, 2019)",
  "key": {"SGBS preadipocytes": {"tested_on": "SGBS preadipocytes", "assay": "AdipoRed adipogenesis assay, SGBS", "format": "cell-based, human", "details": "24 h; tesa 10/25/100 μM, tesa-NPY 100 μM; AdipoRed fluorescence, DMSO = 100%; n = 3 in quadruplicate", "procedure": "3T3-L1 or SGBS cells were seeded into 96-well plates and grown to complete confluency (set as day 0). On day 2 of confluence, the 3T3-L1 cells were differentiated by DMEM High Glucose Medium supplemented with 10% (v/v) not-heat inactivated FCS, 0.5 mM IBMX, 167 nM human insulin, and 1 μM dexamethasone (differentiation medium). On day 4, the medium was replaced by insulin medium (DMEM High Glucose Medium, 10% not-heat inactivated FCS, and 167 nM human insulin). On day 6, the medium was changed to standard culture medium and changed every other day until full differentiation was achieved (on day 8). The SGBS cells were differentiated as previously described. […] On day 4, the medium was replaced by 3FC medium (DMEM High Glucose Medium and Hams F12 (1:1 (v/v))) without FCS and supplemented with 0.01 mg human apo-transferrin, 20 nM human insulin, triiodo-L-thyronine, and 100 nM hydrocortisone. The medium was changed every second day until full differentiation was achieved (day 10). […]\n(A, B) Cells were differentiated and stimulated according to the protocol depicted for 3T3-L1 (A) and for SGBS (B). […] (E,F) Expression of adipocyte-enriched genes in 3T3-L1 (E) or SGBS (F) adipocytes analyzed by qPCR. […] Statistical significances refer to DMSO-treated cells and were determined by one-way analysis of variance (ANOVA) followed by Dunnett's multiple comparison test, *≤0.05, **p ≤ 0.01, ***p ≤ 0.001."}, "[1]": {"assay": "Body weight change in db/db mice", "format": "in vivo", "details": "2.5 μM/kg/day, 8 days, tesa oral, peptides i.p., n = 5", "procedure": "(§1) All of the experiments were performed according to the animal ethical laws of the state Saxony, Germany, and were approved by the local animal ethics review board (Landesdirektion Sachsen, Leipzig, Germany). Female db/db mice 12–15 weeks of age were purchased from Taconic (Denmark) and housed in groups of 5 in temperature- and humidity-controlled facilities in a 12 h:12 h light–dark cycle and had free access to tap water and food (regular chow, Sniff, Soest, Germany). Three out of seven groups served as controls (N = 15, see Table 1). The 5 db/db mice were untreated and 10 db/db mice were vehicle treated either orally or intraperitoneally (i.p.). […]\n(§2) All of the mice were monitored for 9 days during the treatment period. Body weight, food intake, and water uptake were recorded daily and body composition (lean body mass and whole body fat mass) was recorded at the beginning, middle, and end of the study in the conscious mice using an EchoMRI system (Echo Medical Systems, Houston, TX, USA). At the beginning and end of the treatment period, the HbA1c levels were determined from 5 μl of whole venous blood samples using an automated chemical analyzer at the Institute of Laboratory Medicine and Clinical Chemistry and beta-ketone using an automated glucose monitor (FreeStyle Precision H, Abbott GmbH, Ludwigshafen, Germany). […]"}, "HbA1C": {"assay": "HbA1C", "format": "in vivo", "details": "db/db mice, 2.5 μM/kg/day, 8 days", "procedure": "as §1, §2"}, "Serum Mcp-1": {"assay": "Serum Mcp-1", "format": "in vivo", "details": "db/db mice, 2.5 μmol/kg/day, 8 days; ELISA; n = 5", "procedure": "as §1, with “(i.p.). One additional group (n = 5) of lean C57BL/6NTac mice was used as a metabolically healthy control group.” for “(i.p.).”\nSerum insulin (mouse insulin ELISA, Mercodia, Uppsala, Sweden), adiponectin (mouse adiponectin ELISA, AdipoGen, San Diego, CA, USA), leptin (mouse leptin ELISA, Crystal Chem, Downers Grove, IL, USA), and Mcp-1 (mouse/rat CCL2/JE/Mcp-1 Quantikine ELISA, R&D Systems, Minneapolis, MN, USA) levels were analyzed via ELISA according to the manufacturer's instructions. Serum concentrations of TG, FFA, and cholesterol were measured by an automatic chemical analyzer at the Institute of Laboratory Medicine and Clinical Chemistry."}, "PPARγ mRNA in liver": {"tested_on": "PPARγ mRNA in liver", "assay": "PPARγ mRNA expression in liver", "format": "in vivo", "details": "db/db mice, 2.5 μM/kg/day, 8 days; qRT-PCR relative to control animals", "procedure": "The 3T3-L1 or SGBS cells were seeded into 6-well plates and differentiated as previously described. Tesa or peptides were added to the differentiation medium at a concentration of 100 μM on day 2, followed by 12 h or 24 h incubation. On day 4, the cells were washed two times with PBS, harvested by trypsinization, and stored at −70 °C until RNA isolation was performed. […] N ≥ 3 independent experiments with two replicates were performed. For the cell culture experiments, the data were analyzed according to the 2^−ΔΔCt method using 36B4 or GAPDH as housekeeping genes and DMSO treatment as a control. Liver mRNA expression was calculated relative to 18sRNA, which was used as an internal control due to its resistance to glucose-dependent regulation. The mRNA levels were quantified using the standard curve method of QuantStudio 6 Flex software (Applied Biosystems, Foster City, CA, USA), determining the crossing points of the individual samples using an algorithm that identifies the first turning point of the fluorescence curve. Amplification of the specific transcripts was confirmed by the melting curve profiles (cooling the sample to 68 °C and heating slowly to 95 °C while measuring the fluorescence) at the end of each PCR [53]. […]"}, "[2]": {"parameters": "method as in Ljung et al. [74]", "details": "ref Ljung et al. [74]; cited from earlier work", "from_the_text": "In the present study, we used db/db mice to evaluate the anti-diabetic potency of the peptide conjugate, as these mice are known to develop severe insulin resistance and hypertriglyceridemia."}},
  "note": "“Also recorded” adds a separate entry of the source.",
  "data": [
    {"smiles": "CCO[C@@H](Cc1ccc(OCCc2ccc(OS(C)(=O)=O)cc2)cc1)C(=O)O", "note": "[tesa, tesaglitazar]", "values": [
      {"measurement": "adipogenesis (triglyceride content), SGBS", "setting": "SGBS preadipocytes", "result": "enhanced adipogenesis in both cell lines"},
      {"measurement": "body weight change, in words", "setting": "[1]", "result": "did not change significantly; also recorded: can prevent this weight loss"},
      {"measurement": "HbA1C change", "setting": "HbA1C; vehicle/untreated increased by approximately 2%, n = 5", "result": "graduated reduced increase"},
      {"measurement": "diabetes progression", "setting": "HbA1C; 12-16 weeks old", "result": "deceleration of disease progression"},
      {"measurement": "Mcp-1 levels", "setting": "Serum Mcp-1", "result": "no significant effect"},
      {"measurement": "expression of PPARγ in the liver", "setting": "PPARγ mRNA in liver", "result": "significantly enhanced the expression of PPARγ in the liver"},
      {"measurement": "weight gain in treated animals", "setting": "[2]", "result": "does not lead to weight gain in treated animals"}
    ]}
  ]
}
